Paper PMC8538301, “Structurally Diverse Polycyclic Salicylaldehyde Derivative Enantiomers from a Marine-Derived Fungus Eurotium sp. SCSIO F452” (Marine Drugs, 2021)

Columns and labels:
[1] = biological target: α-glucosidase; test: α-Glucosidase inhibitory activity assay (PNPG substrate); assay type: biochemical; settings: pH 6.8, 37 °C
Protocol: Inhibitory α-glucosidase activities were determined spectrophotometrically in a 96-well microtiter plate based on p-nitrophenyl-α-D-glucopyranoside (PNPG) as a substrate. In brief, 20 μL 0.2 U/mL α-glucosidase enzyme solution, 50 μL 0.1 mol/L PBS (pH 6.8), and 10 μL of the test compounds in DMSO were mixed and preincubated at 37 °C prior to initiation of the reaction by adding the substrate. After 10 min of preincubation, 20 μL 5 mmol/L PNPG solution was added and then incubated together at 37 °C. After 15 min of incubation, 20 μL 0.2 mol/L Na2CO3 was added to the test tubes to stop the reaction. The absorbance values were measured at 405 nm and converted into percentage inhibitory activity using the following formula: AA(%) = [1 − Asample/(Anegative control − Ablank)] × 100%. […] All data were obtained in triplicate and presented as means ± SD. IC50 values were calculated with the Sigma Plot 10.0 software using a non-linear curve-fitting method.

[2] = Antioxidative assay (DPPH radical scavenging); settings: 12 h, 517 nm
Protocol: Sample stock solutions (10 mM) were diluted to final concentrations of 2, 4, 8, 16, 32, 64, and 128 μM in ethanol. Then, 100 μL 0.2 mmol/L DPPH ethanol solution was added to 100 μL sample solutions of different concentrations on 96-well plates, and allowed to react at room temperature. […] After 12 h, the absorbance values were measured at 517 nm and converted into the percentage antioxidant activity (AA) using the following formula: AA(%) = [1 − (Asample − Ablank)/Acontrol] × 100%. All data were obtained in triplicate and are presented as means ± S.D. EC50 values were calculated with the SigmaPlot 10.0 software (Systat Software Inc., CA, USA) using a non-linear curve-fitting method.

[3] = test system: A549 (lung cancer); test: Cytotoxicity assay (SRB); assay type: cell-based, human; settings: A549 cells, mean ± SD
Protocol: (§1) The cells of SF-268 (human glioblastoma carcinoma), MCF-7 (breast cancer), HepG-2 (liver cancer), and A549 (lung cancer) were purchased from Stem Cell Bank, Chinese Academy of Sciences. The cells were cultured in DMEM medium (Gibco) containing 10% fetal bovine serum (Gibco) at 37 °C in a humidified atmosphere with 5% (v/v) CO2. The cells were incubated in cultural flasks until sub-confluent (~80%). Then, cells (180 μL) with a density of 3 × 10^4 cells/mL of media were seeded onto 96-well plates and incubated for 24 h at 37 °C, 5% CO2. Subsequently, 20 μL of different concentrations of compounds ranging from 1 to 128 μM in DMSO were added to each plate well. Equal volume of DMSO was used as a negative control. The plates were further incubated for 72 h. After incubation, cell monolayers were fixed with 50% (wt/v) trichloroacetic acid (50 μL) and stained for 30 min with 0.4% (wt/v) SRB dissolved in 1% acetic acid. Unbound dye was removed by washing repeatedly with 1% acetic acid. The protein-bound dye was dissolved in 10 mM Tris base solution (200 µL) for OD determination at 570 nm using a microplate reader. […] All data were obtained in triplicate and presented as means ± SD. IC50 values were calculated with the Sigma Plot 10.0 software (Systat Software Inc., CA, USA) using a non-linear curve-fitting method.

[4] = test system: MCF-7 (breast cancer); test: Cytotoxicity assay (SRB); assay type: cell-based, human; settings: MCF-7 cells, mean ± SD
Protocol: as §1

[5] = test system: HepG2 (liver cancer); test: Cytotoxicity assay (SRB); assay type: cell-based, human; settings: HepG2 cells, mean ± SD
Protocol: as §1

[6] = test system: SF-268 (human glioblastoma carcinoma); test: Cytotoxicity assay (SRB); assay type: cell-based; settings: SF-268 cells, mean ± SD
Protocol: as §1

Q: For `CC(C)=CCc1cc2c(c(C=O)c1O)C1C(O)CCC1C(C)O2` (single isomer, unassigned; (-)) [(−)-5, eurotirumin], which IC50 [1] is on record?
A: The IC50 was over 100 µM.

Q: What about the EC50 [2] of the same compound?
A: Its EC50 is over 100 µM.

Q: And the IC50 ([3]; Homo sapiens, A549, 72 h)?
A: The IC50 was 42.6 ± 1.43 µM.

Q: What about the IC50 ([4]; Homo sapiens, MCF7, 72 h) of the same compound?
A: Its IC50 is 50.7 ± 2.48 µM.

Q: What about the IC50 ([5]; Homo sapiens, HepG2, 72 h) of the same compound?
A: Its IC50 is 40.7 ± 2.76 µM.

Q: What about the IC50 ([6]; Homo sapiens, SF-268, 72 h) of the same compound?
A: Its IC50 is 35.6 ± 1.79 µM.

Q: Which results are given for `CCCCCCCC1(O)CC(C=CC(C)(C)O)=CC1=O` (single isomer, unassigned; (+)) [(+)-4, Euroticin I]?
A: IC50 [1]: > 100 µM; EC50 [2]: > 100 µM; IC50 ([3]; 72 h): 16.9 ± 0.92 µM; IC50 ([4]; 72 h): 20.5 ± 1.54 µM; IC50 ([5]; 72 h): 19.9 ± 5.09 µM; IC50 ([6]; 72 h): 12.7 ± 0.46 µM

Q: For `CC(C)=CCc1cc2c(c(C=O)c1O)[C@@H]1[C@H](CC[C@@H]1O)[C@@H](C)O2` [(+)-5, eurotirumin], which IC50 [1] is on record?
A: Its IC50 is 89.4 ± 7.86 µM.

Q: What about the EC50 [2] of the same compound?
A: The EC50 was over 100 µM.

Q: What about the IC50 ([3]; Homo sapiens, A549, 72 h) of the same compound?
A: Its IC50 is 47.3 ± 0.71 µM.

Q: And the IC50 ([4]; Homo sapiens, MCF7, 72 h)?
A: Its IC50 is 55.6 ± 4.85 µM.

Q: What about the IC50 ([5]; Homo sapiens, HepG2, 72 h) of the same compound?
A: The IC50 was 41.2 ± 2.63 µM.

Q: What about the IC50 ([6]; Homo sapiens, SF-268, 72 h) of the same compound?
A: The IC50 was 22 ± 0.88 µM.

Q: With `O=C1O[C@H]([C@@H](O)CO)C(O)=C1O` [Ascorbic acid, reference compound] as the compound, how does the EC50 [2] read?
A: The EC50 was 11.3 ± 0.56 µM.

Q: For `CCCCC[C@@H]1O[C@@]2(C)Cc3c4c(cc(O)c3[C@@H]1O2)C=CC(C)(C)O4` [(−)-1, Euroticin F], which IC50 [1] is on record?
A: The IC50 was over 100 µM.

Q: And the EC50 [2]?
A: Its EC50 is 41.4 ± 2.68 µM.

Q: And the IC50 ([3]; Homo sapiens, A549, 72 h)?
A: Its IC50 is 33.4 ± 1.5 µM.

Q: What about the IC50 ([4]; Homo sapiens, MCF7, 72 h) of the same compound?
A: Its IC50 is 28 ± 1.57 µM.

Q: And the IC50 ([5]; Homo sapiens, HepG2, 72 h)?
A: The IC50 was 30.7 ± 3.55 µM.

Q: What about the IC50 ([6]; Homo sapiens, SF-268, 72 h) of the same compound?
A: The IC50 was 37.3 ± 2.46 µM.

Q: Which results are given for `CO[C@H]1O[C@@H]2CC[C@@H]([C@H](C)O)[C@@H]2c2c(O)cc(CC=C(C)C)c(O)c21` [(+)-2, Euroticin G]?
A: IC50 [1]: 38 ± 2.73 µM; EC50 [2]: 76.9 ± 0.99 µM; IC50 ([3]; Homo sapiens, A549, 72 h): > 100 µM; IC50 ([4]; Homo sapiens, MCF7, 72 h): > 100 µM; IC50 ([5]; Homo sapiens, HepG2, 72 h): > 100 µM; IC50 ([6]; Homo sapiens, SF-268, 72 h): > 100 µM

Q: What does the source list for `CCCCC[C@H]1O[C@]2(C)Cc3c4c(cc(O)c3[C@H]1O2)C=CC(C)(C)O4` [(+)-1, Euroticin F]?
A: IC50 [1]: > 100 µM; EC50 [2]: 42.3 ± 3.85 µM; IC50 ([3]; Homo sapiens, A549, 72 h): 33.8 ± 0.34 µM; IC50 ([4]; Homo sapiens, MCF7, 72 h): 27.2 ± 2.03 µM; IC50 ([5]; Homo sapiens, HepG2, 72 h): 28 ± 1.68 µM; IC50 ([6]; Homo sapiens, SF-268, 72 h): 21.9 ± 0.96 µM

Q: What does the source list for `CCCCCC1(O)Cc2c3c(cc(O)c2C1=O)C=CC(C)(C)O3` (racemic) [(±)-3, Euroticin H]?
A: IC50 [1]: 16.3 ± 1.68 µM; EC50 [2]: > 100 µM; IC50 ([3]; Homo sapiens, A549, 72 h): > 100 µM; IC50 ([4]; Homo sapiens, MCF7, 72 h): > 100 µM; IC50 ([5]; Homo sapiens, HepG2, 72 h): > 100 µM; IC50 ([6]; Homo sapiens, SF-268, 72 h): > 100 µM

Q: With `COc1cccc2c1C(=O)c1c(O)c3c(c(O)c1C2=O)C[C@@](O)(C(=O)CO)C[C@@H]3O[C@H]1C[C@H](N)[C@H](O)[C@H](C)O1` [Adriamycin, reference compound] as the compound, how does the IC50 ([3]; Homo sapiens, A549, 72 h) read?
A: Its IC50 is 1.73 ± 0.04 µM.

Q: And the IC50 ([4]; Homo sapiens, MCF7, 72 h)?
A: The IC50 was 2.02 ± 0.04 µM.

Q: And the IC50 ([5]; Homo sapiens, HepG2, 72 h)?
A: The IC50 was 1.99 ± 0.07 µM.

Q: What about the IC50 ([6]; Homo sapiens, SF-268, 72 h) of the same compound?
A: The IC50 was 1.19 ± 0.03 µM.

Q: With `CCCCCCCC1(O)CC(C=CC(C)(C)O)=CC1=O` (single isomer, unassigned; (-)) [(−)-4, Euroticin I] as the compound, how does the IC50 [1] read?
A: Its IC50 is over 100 µM.

Q: What about the EC50 [2] of the same compound?
A: Its EC50 is over 100 µM.

Q: And the IC50 ([3]; Homo sapiens, A549, 72 h)?
A: Its IC50 is 22.2 ± 1.54 µM.

Q: And the IC50 ([4]; Homo sapiens, MCF7, 72 h)?
A: The IC50 was 23.6 ± 2.99 µM.

Q: What about the IC50 ([5]; Homo sapiens, HepG2, 72 h) of the same compound?
A: Its IC50 is 19.5 ± 2.7 µM.

Q: And the IC50 ([6]; Homo sapiens, SF-268, 72 h)?
A: Its IC50 is 23.7 ± 3.88 µM.

Q: Which results are given for `CO[C@@H]1O[C@H]2CC[C@H]([C@@H](C)O)[C@H]2c2c(O)cc(CC=C(C)C)c(O)c21` [(−)-2, Euroticin G]?
A: IC50 [1]: 79.7 ± 1.74 µM; EC50 [2]: 77.1 ± 1.88 µM; IC50 ([3]; Homo sapiens, A549, 72 h): > 100 µM; IC50 ([4]; Homo sapiens, MCF7, 72 h): > 100 µM; IC50 ([5]; Homo sapiens, HepG2, 72 h): > 100 µM; IC50 ([6]; Homo sapiens, SF-268, 72 h): > 100 µM
